This is an account of results in US7671165B2, “Method of forming polycarbonate” (Sabic Innovative Plastics IP B.V., priority 2008, dated 2010).

Data set [1] in a line: Solubility of reaction components and additives in MS. It counts as physicochemical.
Data set [2] can be described thus: Solubility of catalysts in MS and co-solvents.

`O=C(O)CCCCCCCCCCCCC(=O)O` [1,12-Dodecanedicarboxylic acid]: the “Solubility in MS, T (90° C.)” value in data set [1] (0.8 wt %, 0.1 g in 10 ml MS) is listed as “Dissolved”. Moreover, the “Stable at T (room) for:” value in data set [1] (solution in MS, 0.8 wt %, result in words) is reported as “Crystalized”.
Regarding `COC(=O)c1ccccc1OC(=O)Oc1ccccc1C(=O)OC` [BMSC, bismethylsalicylcarbonate], the “Solubility in MS, T (90° C.)” value in data set [1] (4.1 wt %, 0.5 g in 10 ml MS) was “Dissolved”. Further, the “Solubility in MS, T (100° C.)” value in data set [1] (17.5 wt %, 2.5 g in 10 ml MS) was “Dissolved”. Further, the “Stable at T (room) for:” value is greater than 24 h in data set [1] (solution in MS, 4.1 wt %) and greater than 24 h in data set [1] (solution in MS, 17.5 wt %).
In the case of `CC(=O)[O-].[Cs+]` [CS-Acetate], in data set [2] (0.79 wt %, 0.1 g, 10.0 ml MS + 1.0 ml MeOH), the “Solubility of catalyst, T (room)” value was “Dissolved”. For the same compound, the “Stable at T (room) for:” value in data set [2] (0.79 wt %, 10.0 ml MS + 1.0 ml MeOH) is greater than 24 h.
Regarding `O=C(Oc1ccccc1)Oc1ccccc1` [Diphenyl Carbonate], in data set [1] (4.1 wt %, 0.5 g in 10 ml MS), the “Solubility in MS, T (90° C.)” value is on record as “Dissolved”. The “Stable at T (room) for:” value in data set [1] (solution in MS, 4.1 wt %) was greater than 24 h.
Regarding `CC(C)(C)c1ccc(OP(Oc2ccc(C(C)(C)C)cc2C(C)(C)C)Oc2ccc(C(C)(C)C)cc2C(C)(C)C)c(C(C)(C)C)c1` [Irgafos 168], the “Solubility in MS, T (room)” value in data set [1] (0.8 wt %, 0.1 g in 10 ml MS) is on record as “Dissolved”. Also, in data set [1] (4.1 wt %, 0.5 g in 10 ml MS), the “Solubility in MS, T (50° C.)” value was “Dissolved”. Besides, the “Stable at T (room) for:” value is 5 h in data set [1] (solution in MS, 0.8 wt %) and less than 2 h in data set [1] (solution in MS, 4.1 wt %).
Consider `O[C@@H]1CO[C@H]2[C@@H]1OC[C@@H]2O` [Isosorbide, 1,4:3,6-dianhydro-D-sorbitol], for which the “Solubility in MS, T (room)” value is on record as “Dissolved” in data set [1] (0.8 wt %, 0.1 g in 10 ml MS) and “Dissolved” in data set [1] (4.1 wt %, 0.5 g in 10 ml MS). Besides, the “Stable at T (room) for:” value in data set [1] (solution in MS, 0.8 wt %) was greater than 48 h; in data set [1] (solution in MS, 4.1 wt %), greater than 24 h.
In the case of `Cc1cc(O)ccc1O` [Methyl hydroquinone], the “Solubility in MS, T (room)” value in data set [1] (0.8 wt %, 0.1 g in 10 ml MS) is “Dissolved”. In data set [1] (7.8 wt %, 1 g in 10 ml MS), the “Solubility in MS, T (90° C.)” value is on record as “Dissolved”.
Consider `CC(C)(c1ccccc1)c1ccc(O)cc1` [Para-Cumyl Phenol], for which the “Stable at T (room) for:” value in data set [1] is greater than 24 h. The “Solubility in MS, T (room)” value was “Dissolved” in data set [1] (4.1 wt %, 0.5 g in 10 ml MS); “Dissolved” in data set [1] (17.5 wt %, 2.5 g in 10 ml MS); “Dissolved” in data set [1] (29.7 wt %, 5 g in 10 ml MS).
Take `Oc1cccc(O)c1` [Resorcinol]: the “Stable at T (room) for:” value is greater than 48 h in data set [1] (solution in MS, 0.8 wt %) and greater than 24 h in data set [1] (solution in MS, 7.8 wt %).
In the case of `CC(=O)[O-].CCCC[N+](CCCC)(CCCC)CCCC` [Tetra Butyl Ammonium Acetate], the “Stable at T (room) for:” value in data set [2] (2.47 wt %, 10.0 ml MS, no co-solvent) is greater than 72 h.
